These are literature values, as cited in article PMC10225205 (Cancer Medicine, 2023).

Like-named read-outs stand apart in the source and are kept apart here.

For the series the following is noted: cited from earlier work.

As for `COc1cc(OC)cc(N(CCNC(C)C)c2ccc3ncc(-c4cnn(C)c4)nc3c2)c1` [erdafitinib], the “Most common TEAE” value (in vivo) was “hyperphosphatemia”. Also, the “Most common TEAEs” value (phase 1 multicenter study, advanced solid tumors) is “hyperphosphatemia, dry mouth, stomatitis, and asthenia”. Turning to `C=CC(=O)N1CC[C@H](n2nc(C#Cc3cc(OC)cc(OC)c3)c3c(N)ncnc32)C1` [futibatinib], the “Most common TEAE” value (phase 1, Japanese patients with advanced solid tumors) is recorded as “hyperphosphatemia”. For the same compound, the “Most frequently reported TEAEs” value (phase 1 study, advanced solid tumors) is “hyperphosphatemia, diarrhea, constipation, and nausea”. Take `CCN1CCN(c2ccc(Nc3cc(N(C)C(=O)Nc4c(Cl)c(OC)cc(OC)c4Cl)ncn3)cc2)CC1` [infigratinib]: for the setting “global phase 1 study”, the “Most commonly reported (>30%) TEAEs” value was “hyperphosphatemia, constipation, appetite decreased, stomatitis, diarrhea, nausea, and fatigue”.
